# Measured values published in patent publication US20190079075A1, “PHARMECEUTICAL COMPOSITION FOR LUNG CANCER TREATMENT AND METHODS FOR PROVIDING INFORMATION AND SCREENING” (DONG-A UNIVERSITY RESEARCH FOUNDATION FOR INDUSTRY-ACADEMY …, priority 2015, published 2019).
# Experiments:
# lung cancer cells [1] = assay: Local UV irradiation and immunofluorescence (6-4PP repair kinetics, XPA foci); assay type: cell-based, human; settings: for XPA foci-positive cells, Pt-PreC vs nonPreC: FIG. 7B
# Procedure: Results are presented as mean±SD from three independent experiments. Differences were considered significant at the value of P<0.01 (**). FIGS. 8A to 8D show the upregulation of SIRT1 expression during PreC. […] GAPDH was used as a loading control. […] Histone H3 was used to indicate chromatin-enriched fraction. […] 60 minutes after local UV irradiation the 6-4PP foci-positive cells were counted from randomly selected 1000 cells in each sample. The bars and error bars represent the mean±s.d from three independent experiments. Differences were considered significant at the value of P<0.001 (***). […] After incubation for the recovery times the cells were fixed in 4% paraformaldehyde for 15 min, followed by conventional immunofluorescence staining procedures. UV-induced lesions were counter-labeled with anti-6-4PP antibody, and XPA foci-positive cells were counted for quantitative analysis. The images were captured using Nikon imaging software NIS-Elements 4.0.
# [2] = system: 6-4PP-containing DNA substrate; assay: Dual-incision NER activity assay with lysate of Pt-PreC cells; assay type: cell-based, human; settings: FIG. 5
# Procedure: Dual-incision NER activity assay was performed using isotope-labeled and 6-4PP-containing linear substrate DNA and cell lysates obtained from nonPreC and Pt-PreC cells at the indicated times after PreC. Amount of excision product was used as a measure of the NER capacity of the lysate. Results are presented as mean±SD from three independent experiments. Differences were considered significant at the values of P<0.01 (**) and P<0.001 (***). Assay of NER activity in the cell lysate toward 6-4PP-containing DNA substrate was carried out. Briefly, 10 fmol of 140-bp duplex with a 6-4PP in the center and ^32P-label at the 5th phosphodiester bond 5′ to the site of the lesion was incubated with 70 μg of lysate in 25 μL of excision buffer at 30° C. for 1 h. The amount of excision product was used as a measure of NER capacity in the lysate. The 6-4PP-containing linear duplex substrate DNA and NER-competent cell lysate were prepared.
# lung cancer cells [3] = assay: Immunoslot blotting of residual UV-induced CPDs after cisplatin preconditioning; assay type: cell-based, human; settings: preconditioning with 5 μM cisplatin; 5 or 10 J/m^2 UV; FIGS. 3B and 3C
# Procedure: FIGS. 3A to 3C show the enhanced UV-induced CPD repair activity following Pt-PreC. […] After immunoslot blotting the membrane was counterstained with SYBR-Gold for a loading control of genomic DNA. 5 J/m^2 (FIG. 3B) or 10 J/m^2 (FIG. 3C) of UV-induced CPD repair kinetics were measured from cells conditioned with nonPreC or Pt-PreC.
# (§1) A549 and H460 cells (American Type Culture Collection, Manassas, Va., USA) were cultured in Dulbecco's modified Eagle medium supplemented with 10% fetal bovine serum and 1% penicillin-streptomycin. 100% confluent cells were kept for additional four days to completely block cell proliferation and then exposed to the UV light using a germicidal lamp (for immunoslot blotting) or UV crosslinker (for immunofluorescence) emitting primarily UV-C light. A UV-C sensor (UV Products, Upland, Calif., USA) was used to calibrate the fluence rate of the incident light. For immunofluorescence staining, cells were grown on a glass coverslip coated with poly-D-lysine and laminin (BD Biosciences, San Jose, Calif., USA). For assessment of cell viability, CellTiter-Fluor Cell Viability Assay kit (Promega, Madison, Wis., USA) was used as indicated in manufacturer's protocol. Fluorescence plate reader (BIORAD, Hercules, Calif., USA) was used to measure a constitutive protease activity within live cells using a fluorogenic and cell permeable peptide substrate. […]
# lung cancer cells [4] = assay: Immunoslot blotting of Pt-GpG adduct removal after cisplatin preconditioning; assay type: cell-based, human
# Procedure: as §1, with “FIGS. 4A and 4B show the enhanced Pt-GpG diadduct removal by Pt-PreC. […] The bars and error bars represent the mean±s.d from three independent experiments. A549” for “A549”
# SIRT1 [5] = molecular target: T1, SIRT1 (Homo sapiens, UniProt Q96EB6); assay: XPA loading to chromatin (chromatin-enriched fraction, immunoblotting); settings: EX527 pretreatment before cisplatin following UV-PreC; FIG. 8B
# T1 sequence (Q96EB6 1-747): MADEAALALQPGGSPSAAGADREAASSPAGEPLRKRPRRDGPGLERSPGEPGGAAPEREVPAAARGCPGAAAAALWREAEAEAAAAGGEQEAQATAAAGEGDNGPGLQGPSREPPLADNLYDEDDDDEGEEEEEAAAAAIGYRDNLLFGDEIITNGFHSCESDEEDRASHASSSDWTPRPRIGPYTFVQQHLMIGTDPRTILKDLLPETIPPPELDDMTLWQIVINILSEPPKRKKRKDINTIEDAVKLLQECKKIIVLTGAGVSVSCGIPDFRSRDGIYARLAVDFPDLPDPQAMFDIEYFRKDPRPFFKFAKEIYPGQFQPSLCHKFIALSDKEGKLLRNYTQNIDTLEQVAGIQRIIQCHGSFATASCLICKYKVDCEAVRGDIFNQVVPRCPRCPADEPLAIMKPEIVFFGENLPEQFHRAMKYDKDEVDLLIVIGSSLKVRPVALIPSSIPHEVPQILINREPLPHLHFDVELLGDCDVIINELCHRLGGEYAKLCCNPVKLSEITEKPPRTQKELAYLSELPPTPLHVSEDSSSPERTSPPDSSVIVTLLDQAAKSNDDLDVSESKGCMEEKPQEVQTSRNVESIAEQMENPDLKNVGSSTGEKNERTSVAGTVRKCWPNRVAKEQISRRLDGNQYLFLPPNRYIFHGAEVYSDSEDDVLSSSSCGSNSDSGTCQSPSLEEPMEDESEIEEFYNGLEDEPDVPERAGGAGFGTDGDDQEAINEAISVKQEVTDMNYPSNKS
# SIRT1 [6] = molecular target: T1, SIRT1; assay: XPA acetylation by immunoprecipitation of XPA and immunoblotting with anti-acetyl-lysine antibody; assay type: cell-based; settings: UV-PreC cells pretreated with EX527 for 5 h before cisplatin treatment; FIG. 8B
effect on UV-PreC-induced enhancement of XPA chromatin loading (SIRT1 [5]),effect on the UV-PreC-induced decrease in acetylation level of XPA (SIRT1 [6]),Compound,"6-4PP removal, Pt-PreC vs nonPreC control (lung cancer cells [1]; 200 J/m^2 local UV irradiation, FIG. 7A)","XPA foci-positive cells, Pt-PreC vs nonPreC (lung cancer cells [1]; 60 min after UV exposure)","XPA foci-positive cells, Pt-PreC vs nonPreC (lung cancer cells [1]; within 30 min of recovery time)",time after PreC at which NER activity peaked [2] [h],time after PreC at which NER activity started to increase [2] [h],time after PreC at which enhancement of NER capacity was no longer detected [2] [h],"kinetics of CPD repair after the same dose of UV, preconditioned vs nonPreC (lung cancer cells [3])","remaining Pt-GpG adduct after Pt-PreC (lung cancer cells [4]; 48 h after Pt-PreC with 5 μM of cisplatin, FIG. 4A)","Pt-GpG repair kinetics upon following cisplatin treatment, Pt-PreC vs nonPreC (lung cancer cells [4]; Pt-PreC 5 μM, then 10 μM cisplatin, FIG. 4B)","effect on PreC-induced repair capacity (6-4PP repair kinetics) (lung cancer cells [1]; 1 μM EX-527 for 5 h before local UV irradiation, 6-4PP foci-positive cells counted 60 min after UV, FIG. 8C)"
–,–,N.N.[Cl][Pt][Cl] [cisplatin],accelerated the 6-4PP removal,approximately 3 times less,no difference,48,12,72,much faster,no remaining Pt-GpG adduct,much faster,–
reduced in the presence of EX527,immediately reversed,"NC(=O)C1CCCc2c1[nH]c1ccc(Cl)cc21 (stereo not drawn) [EX527, 6-chloro-2,3,4,9-tetrahydro-1H-carbazole-1-carboxamide]",–,–,–,–,–,–,–,–,–,compromised by SIRT1 inhibition
